Broadly, the melting point is the temperature of the solid-liquid transition.

Consider `O=C1OCc2ccc(S(=O)(=O)Cl)cc21`, for which the melting point was in the range of 104 to 106 °C.
In the case of `CCN1N=C(C)CC1=O`, the melting point fell in the range of 107 to 109 °C.
For the molecule `COc1cc(-n2cnnn2)c(Cl)cc1C(=O)O`, the melting point lay in the range of 331 to 333 °C.
With `O=S(=O)(Cl)c1cccnc1Cl` the figure was 42 to 44 °C.
In turn, `CC(C)CNCC(=O)O` returned a melting point of 198 to 200 °C.
Regarding `CCC(=O)Nc1cccc(C(=O)O)c1`, the melting point was in the range of 229 to 231 °C.
Consider `CCN(c1ccccc1)S(=O)(=O)c1ccc(Cl)nc1`, for which the melting point is 81 to 83 °C.
On to `O=C(O)C(NCC(F)(F)F)c1cc(Br)cs1` (stereo not drawn), for which the melting point was 178 to 180 °C.
Turning to `CC(C)Nc1cc(F)ccc1[N+](=O)[O-]`, the melting point lay in the range of 68 to 70 °C.
`CCOc1cccc(C=O)c1OC(F)F` returned a melting point of 41 to 43 °C.
Consider `Cc1nnc(-c2cccc(C#N)c2)[nH]1`, for which the melting point fell in the range of 173 to 175 °C.
With `NNC(=O)c1ccc(-n2cnnn2)cc1` the figure was 228 to 230 °C; with `CC(C)(C)C(=O)N1CCC(C(=O)O)CC1`, 115 to 127 °C.
Regarding `Cc1c(N)cccc1CS(C)=O` (stereo not drawn), the melting point was 183 to 185 °C.
`CNCC(O)CN1CCCC1=O` (stereo not drawn) showed a melting point of 88 to 90 °C.
`Cc1[nH]ncc1CNc1ccc(O)cc1` showed a melting point of 150 to 152 °C.
As for `Nc1ccccc1Cc1nc(-c2ccsc2)no1`, the figure is 118 to 120 °C.
On to `COC(=O)/C=C/c1ccc(S(=O)(=O)Cl)cc1`, for which the melting point fell in the range of 112 to 114 °C.
`CCCCC1NCCNC1=O` (stereo not drawn) had a melting point of 67 to 69 °C.
As to `O=C(O)c1nccn2c(Br)cnc12`, the melting point is 158 to 160 °C.
Molecule `CC(C)(C)c1csc(-c2ccc(O)cc2)n1` had a melting point of 228 to 230 °C.
The molecule `COc1ccc(CNc2ccncc2)cc1` registered a melting point of 126 to 128 °C.
As for `C#CCN1CCCCC1C(=O)O` (stereo not drawn), the melting point is 177 to 179 °C.
`CC(=O)c1ccc(-c2ccccc2Cl)s1` had a melting point of 54 to 56 °C.
As for `CS(=O)(=O)c1cc(Cl)c(C(=O)O)c(Cl)c1`, the figure is 144 to 146 °C.
For `CC(=O)Oc1ccc(CCl)cc1`, the melting point is 29 to 31 °C.
The molecule `O=C(CBr)c1ccc2c(c1)CCO2` registered a melting point of 72 to 74 °C.
The molecule `O=C(NC1CCN(Cc2ccccc2)CC1)c1cccc(F)c1` gave a melting point of 143 to 145 °C.
Molecule `NNS(=O)(=O)Cc1ccc([N+](=O)[O-])cc1` had a melting point of 139 to 141 °C.
The molecule `O=C(O)CC(O)c1ccc(Cl)cc1` (stereo not drawn) registered a melting point of 197 to 199 °C.
As for `N#Cc1ccnc(OCc2ccccc2)c1`, the melting point fell in the range of 74 to 76 °C.
As to `Oc1cc(Br)ccc1C(F)(F)F`, the melting point was 89 to 91 °C.
In turn, `NC(CCO)c1ccc(F)cc1` (stereo not drawn) came in with a melting point of 67 to 69 °C.
`Cn1nc(-c2ccccc2)c(C=O)c1Cl` had a melting point of 61 to 63 °C.
As for `O=C(O)CN1CCCCC1=O`, the figure is 169 to 171 °C; as for `CCc1ccc(C(=O)O)cc1C#N`, 141 to 143 °C.
With `NS(=O)(=O)CCCF` the figure was 45 to 47 °C.
As to `Cc1ccnc(Oc2cc(N)ccc2C)c1`, the melting point lay within 76 to 78 °C.
`COc1cccc(CC(NC(C)=O)C(=O)O)c1` (stereo not drawn): the melting point fell in the range of 148 to 150 °C.
`CC(C)(C)NS(=O)(=O)c1ccccc1NN` returned a melting point of 122 to 124 °C.
`O=C1CC2CCCc3cccc1c32` (stereo not drawn) returned a melting point of 95 to 97 °C.
In turn, `O=C(O)Cc1cccc(OCCCOc2ccccc2)c1` showed a melting point of 78 to 80 °C.
As to `CCN(CC)S(=O)(=O)c1ccc(C)c(N)c1`, the melting point was 108 to 112 °C.
For `Cc1sc2nc(CCl)[nH]c(=O)c2c1C`, the melting point is 190 to 192 °C.
On to `CCOc1cccc(C=CC(=O)O)c1OC1CCCCC1`, for which the melting point lay within 137 to 139 °C.
`NC1(C(=O)O)CCN(Cc2ccccc2)C1` (stereo not drawn) returned a melting point of 216 to 218 °C.
For the molecule `CCc1ccccc1OCC(=O)O`, the melting point was 123 to 127 °C.
`O=C(O)CCC(=O)c1cc(Cl)sc1Cl` registered a melting point of 117 to 119 °C.
Turning to `O=C(O)Cc1ccn(-c2ccc(F)cc2)n1`, the melting point lay within 97 to 99 °C.
As to `O=C1Nc2c(F)cc(Cl)cc2C1=O`, the melting point lay in the range of 219 to 221 °C.
With `O=C(O)c1scnc1C1CC1` the figure was 204 to 206 °C; with `Cc1ccc(C(=O)C(Br)CC(=O)O)cc1` (stereo not drawn), 116 to 118 °C; with `CCOC(=O)c1ccc(S(=O)(=O)N2CCC(C(=O)O)CC2)cc1`, 219 to 221 °C.
With `C=CCNS(=O)(=O)c1cccc(C(=O)O)c1` the figure was 180 to 182 °C; with `Cc1cc(N)nn1-c1ccc(Cl)cc1`, 100 to 102 °C; with `NS(=O)(=O)Cc1ccccc1[N+](=O)[O-]`, 131 to 133 °C.
For `Cc1nc(-c2ccc(F)cc2)cs1`, the melting point was 74 to 76 °C.
`CNCc1ccc(C(=O)NC)o1` displayed a melting point of 65 to 67 °C.
`Nc1ccc(C=O)cc1[N+](=O)[O-]` gave a melting point of 173 to 175 °C.
As to `Cc1nc(N)[nH]c(=O)c1CC(=O)O`, the melting point is 313 to 315 °C.
Consider `CNS(=O)(=O)c1ccc(N)cc1`, for which the melting point is 110 to 112 °C.
The molecule `Nc1noc(-c2ccsc2)n1` returned a melting point of 196 to 198 °C.
`CSCCC(NC(=O)Cc1ccccc1)C(=O)O` (stereo not drawn) showed a melting point of 101 to 103 °C.
In turn, `O=S(=O)(Nc1nc2ccccc2nc1Cl)c1ccc(F)cc1` displayed a melting point of 181 to 183 °C.
The molecule `Cc1ccc(-c2cnc(-c3ccccc3C(=O)O)o2)cc1` displayed a melting point of 219 to 221 °C.
In the case of `CN(C)C(=O)c1cc(N)ccc1F`, the melting point lay within 104 to 106 °C.
With `CCc1nc(C)c(C(=O)O)s1` the figure was 165 to 167 °C; with `N#CCc1cnn(-c2ccccc2)n1`, 65 to 67 °C; with `COc1ccc(C(=O)Nc2cccc(C=O)c2)cc1`, 128 to 130 °C.
`NCc1cnc(-c2ccc(C(F)(F)F)cc2)s1` displayed a melting point of 73 to 75 °C.
As for `Cc1nc2ccccc2c(=O)n1CC(=O)O`, the figure is 239 to 241 °C.
Regarding `O=Cc1c(O)ccc([N+](=O)[O-])c1Cl`, the melting point is 118 to 120 °C.
`CC1CCCCC1N1C(=O)C=CC1=O` (stereo not drawn) showed a melting point of 40 to 42 °C.
In turn, `CC(Cl)C(=O)N1CCNC1=O` (stereo not drawn) came in with a melting point of 116 to 120 °C.
Consider `Nc1cc(N2CCCS2(=O)=O)ccc1O`, for which the melting point was 134 to 136 °C.
As for `CNS(=O)(=O)CBr`, the figure is 64 to 66 °C.
`Nc1nc2cc(Cl)cc(Cl)c2o1` registered a melting point of 247 to 249 °C.
With `Clc1cccc2cc(I)cnc12` the figure was 97 to 99 °C; with `COc1ccc(-c2nnc(N)[nH]2)c(OC)c1`, 214 to 216 °C; with `CC1CCc2c(sc3nc(S)n(Cc4ccco4)c(=O)c23)C1` (stereo not drawn), 275 to 277 °C.
`O=C(O)CCS(=O)c1ccc2c(c1)OCCO2` (stereo not drawn): the melting point was in the range of 110 to 112 °C.
With `CC(=O)OCc1ccc(S(=O)(=O)C(F)F)cc1`, the melting point lay within 75 to 77 °C.
Take `Cc1nc2c(cnn2-c2cccc(Cl)c2)c(=O)[nH]1`: the melting point is 114 to 116 °C.
`NC(=O)CNc1ccccc1` came in with a melting point of 139 to 141 °C.
As for `CCc1cc(N)on1`, the figure is 49 to 51 °C; as for `Cc1cc(C(=O)O)c2ccc(Br)cc2n1`, 289 to 291 °C.
Consider `c1ccc(C2=NCCN2)nc1`, for which the melting point fell in the range of 149 to 151 °C.
With `ClCC12CC3CC(CC(C3)C1)C2` the figure was 38 to 42 °C; with `N#CCC(=O)Cc1ccc(Cl)cc1`, 85 to 87 °C.
Molecule `Cc1nn(C2CCS(=O)(=O)C2)c(N2CCCCC2)c1C=O` (stereo not drawn) registered a melting point of 86 to 88 °C.
`Cc1cc(S(=O)(=O)Cl)sc1Br` yielded a melting point of 35 to 37 °C.
For `C/C(CC(=O)c1ccccc1)=N\c1ccccc1`, the melting point was in the range of 110 to 112 °C.
On to `CNC(=O)OCC(F)(F)F`, for which the melting point fell in the range of 35 to 37 °C.
As for `N#Cc1ccccc1COc1cccc(C(=O)O)c1`, the melting point fell in the range of 181 to 183 °C.
On to `O=C(O)C1CCCN(S(=O)(=O)c2ccc([N+](=O)[O-])cc2)C1` (stereo not drawn), for which the melting point fell in the range of 221 to 223 °C.
As for `CN(C)CCN1C(=O)C(=O)c2cc(Br)ccc21`, the melting point fell in the range of 102 to 104 °C.
As for `CCOc1ccc(Oc2ccc(C(F)(F)F)cc2N)cc1`, the melting point lay in the range of 45 to 47 °C.
As for `CCS(=O)(=O)c1ccc(S(=O)(=O)Cl)cc1`, the figure is 104 to 106 °C; as for `CC(O)c1nc2ncc(Br)cc2[nH]1` (stereo not drawn), 218 to 220 °C; as for `NS(=O)(=O)N1CCCCC1`, 121 to 123 °C.
On to `COc1ccc(-c2nn(CCC#N)cc2/C=C(/C#N)C(=O)O)cc1`, for which the melting point fell in the range of 212 to 214 °C.
As to `O=C(CCl)N(Cc1ccccc1)c1ccccc1`, the melting point fell in the range of 79 to 81 °C.
In turn, `N#CC1CC(=O)N(c2ccccc2)C1` (stereo not drawn) had a melting point of 138 to 140 °C.
For the molecule `CC1CC(C)CN(c2nnc(S)n2Cc2ccco2)C1` (stereo not drawn), the melting point fell in the range of 119 to 121 °C.
`NC(=O)Nc1ccc2c(c1)OCCO2`: the melting point lay in the range of 159 to 161 °C.
With `Nc1cc(C(F)(F)F)no1` the figure was 52 to 54 °C; with `Sc1ncccc1Br`, 199 to 201 °C; with `O=C(O)CNC(=O)CNC(=O)c1ccco1`, 208 to 210 °C.
Molecule `BrC1=CC2C(C3C=CC2(Br)C32OCCO2)C12OCCO2` (stereo not drawn) returned a melting point of 178 to 180 °C.
As for `COc1ccc(S(=O)(=O)Cl)cc1CC(=O)O`, the figure is 149 to 151 °C.
The molecule `Cc1sc2[nH]c(CCC(=O)O)nc(=O)c2c1C` returned a melting point of 249 to 251 °C.
In the case of `O=CCN1C(=O)COc2ccccc21`, the melting point lay in the range of 97 to 99 °C.
As to `Oc1cccc(Oc2ccncn2)c1`, the melting point fell in the range of 102 to 104 °C.
In the case of `Cc1cc(Br)c(N)cc1[N+](=O)[O-]`, the melting point lay within 115 to 117 °C.
Turning to `Nc1cccc(C(=O)N2CCCCC2)c1`, the melting point was 121 to 123 °C.
Molecule `NNC(=O)NCc1ccc(Cl)cc1` returned a melting point of 163 to 165 °C.
Molecule `COC(=O)c1cccc(-c2cccc(C(=O)OC)c2)c1` returned a melting point of 99 to 101 °C.
Take `CC(=O)c1cc2c(cc1O)OCO2`: the melting point lay within 114 to 116 °C.
As for `CCCSc1ccc(C(=O)O)cc1`, the figure is 141 to 143 °C.
With `CC1(C(=O)O)CCCCN1C(=O)c1ccccc1` (stereo not drawn), the melting point lay within 187 to 189 °C.
With `CC(C)n1nnc(C(=O)O)c1C(F)(F)F` the figure was 99 to 101 °C.
`CCOCCNC(=O)c1ccc(Br)cc1` showed a melting point of 99 to 101 °C.
Molecule `CCCCNc1c(N)n(CCC)c(=O)[nH]c1=O` came in with a melting point of 201 to 203 °C.

For the origin of these results see a melting point compilation (Tetko et al.).
